In patent US4863935A, “Mitomycin compounds having useful anti-tumor activity” (priority 1986, dated 1989):

What was measured:
[1] = LD50 acute toxicity, ddy mice, single abdominal injection; details: mouse, in vivo, ip, 5 ddy mice, 14 days observation, Behrens-Koerber's method
From the text: (§1) As used herein, the term "LD50 " denotes the acute toxicity. The term "ED50 " denotes the administered amount needed for reducing the volume of Sarcoma 180 solid tumours in animals to 50% of the corresponding tumour volume in control (untreated) animals. The term "WBC4000 " denotes the minimum dose of the drug needed to reduce the number of peripheral leucocytes to 4000/mm^3. A greater TI value results in a broader tolerance to the drug, which is advantageous for higher anti-tumour activity and decreased toxicity. The term "T" used herein denotes the average survival days of the test animals administered with the test compound. The term "C" denotes the average survival days of the control (untreated) animals. The term "OPD" denotes the dose of the drug resulting in the highest survival ratio. The term "ILS30 " denotes a 30% increase of life-span.
LD50, ED50 and WBC4000 were respectively determined as follows:
Each animal of the test group, consisting of 5 ddy mice, was administered once with a test compound by abdominal injection. […] To determine the LD50 value, Behrens-Koerber's method was applied.

Sarcoma 180 solid tumour = experiment: ED50 against Sarcoma 180 solid tumour implanted in mice; assay type: in vivo, male mouse (ddy strain); details: for (CI)c: (CI of test compound)/(CI of mitomycin C), CI = LD50/ED50; for ED50: Mus musculus, Sarcoma-180, iv, 168 h, i.v. (tail vein) 24 h after implantation, tumour volume at 7 days, dose for T/C of 0.5
From the text: With regard to the so-called chemotherapeutic index viz. the CI value against sarcoma 180 solid tumour, expressed by the formula: […]
as §1
the term (CI)c denotes (CI of the test compound)/(CI of mitomycin C), and
5×10^6 sarcoma 180 solid tumor cells were abdominally implanted into ddy mice. 7 days after this, ascites cells were sampled. The cells were washed once with a sterilized physiological saline and were used to prepare a cell suspension containing 5×10^7 cells per ml of a sterilized physiological saline. On each occasion, 0.1 ml of the cell suspension was subcutaneously implanted under the skin of the right armpit of a male mouse (ddy strain; body weight 20±2 g). The test compound which was dissolved in a physiological saline with or without addition of Tween 80 was injected into the tail vein of each animal of a group consisting of 5 mice at a dose of 0.1-0.2 ml 24 hours after the implantation of the tumor cells.
The anti-tumor activity was determined in the following manner:
7 days after the implantation, the major axis (a) and the minor axis (b) of the tumour were measured to calculate a value of (a×b^2)/2 which corresponds to the volume of the tumour. The antitumour activity was expressed by the ratio of the volume of the tumour (T) of the group of animals administered with the test compound to the corresponding volume of tumours (C) of the untreated animals.
On graph paper, T/C was plotted on the ordinate using an arithmetic scale and the administered amount of test compound was plotted on the abscissa using a logarithmic scale. The relationship between the dose and T/C was shown by a straight line determined by the method of least squares, from which ED50 viz. a dose corresponding to T/C of 0.5 was obtained.

[2] = system: lymphocytic Leukemia P-388; experiment: Anti-tumour activity against lymphocytic Leukemia P-388 in mice; assay type: in vivo, mouse, female of CDF strain
From the text: Also, their therapeutic indexes, expressed by the formula:
TI=(OPD)/(dose which results in ILS30),
against lymphocytic Leukemia P-388 and the maximum increased life spans (ILSmax), defined by the formula: […]
as §1
The experiment was carried out in the following manner. 1×10^6 lymphocytic Leukemia P-388 tumour cells were abdominally implanted into each mouse of a group consisting of 5 mice (body weight about 22 g; female of CDF strain). 24 hours after implantation, a physiological saline solution (0.2 ml) containing the test compound with or without addition of Tween 80 was abdominally given to the test animal.
Table 7 indicates anti-tumour activities of selected Compounds (I) against lyphocytic Leukemia P-388.

For `CO[C@@]12[C@H](COC(N)=O)C3=C(C(=O)C(C)=C(NCCSCOC(=O)NCCC(=O)OC(C)(C)C)C3=O)N1C[C@@H]1N[C@@H]12` [Compound 2, 7-N--[2-(2-t-butoxycarbonylethyl)aminocarbonyloxymethylthioethyl]mitomycin C], the LD50 at 336 h [1] was 45 mg/kg, the “(CI)c” value (Sarcoma 180 solid tumour) was 1.44 and the ED50 (Sarcoma 180 solid tumour) was 11.2 mg/kg.

With `CO[C@@]12[C@H](COC(N)=O)C3=C(C(=O)C(C)=C(NCCSC(=O)NCCC(=O)OCc4ccccc4)C3=O)N1C[C@@H]1N[C@@H]12` [Compound 3, 7-N--[2-(2-benzyloxycarbonylethyl)aminocarbonylthioethyl]mitomycin C] the LD50 at 336 h [1] was > 100 mg/kg, the “(CI)c” value (Sarcoma 180 solid tumour) was > 0.89 and the ED50 (Sarcoma 180 solid tumour) was 39.6 mg/kg.

For `CO[C@@]12[C@H](COC(N)=O)C3=C(C(=O)C(C)=C(NCCSC(=O)N(C)C)C3=O)N1C[C@@H]1N[C@@H]12` [Compound 8, 7-N--(2-dimethylaminocarbonylthioethyl)mitomycin C], the LD50 at 336 h [1] was 26.3 mg/kg, the “(CI)c” value (Sarcoma 180 solid tumour) was 0.65 and the ED50 (Sarcoma 180 solid tumour) was 14.4 mg/kg.

For `CO[C@@]12[C@H](COC(N)=O)C3=C(C(=O)C(C)=C(NCCSC(=O)NC(CC(=O)OCc4ccccc4)c4ccccc4)C3=O)N1C[C@@H]1N[C@@H]12` (stereo partly shown) [Compound 10, 7-N--[2-(1-phenyl-2-benzyloxycarbonylethyl)aminocarbonylthioethyl]mitomycin C], the LD50 at 336 h [1] was > 100 mg/kg, the “(CI)c” value (Sarcoma 180 solid tumour) was > 0.43 and the ED50 (Sarcoma 180 solid tumour) was 95.5 mg/kg.

For `CO[C@@]12[C@H](COC(N)=O)C3=C(C(=O)C(C)=C(NCCSC(=O)N4CCC[C@H]4C(=O)OCc4ccccc4)C3=O)N1C[C@@H]1N[C@@H]12` [Compound 16, 7-N--[2-((S)--2-benzyloxycarbonylpyrrolidino)-carbonylthioethyl]mitomycin C], the LD50 at 336 h [1] was > 100 mg/kg, the “(CI)c” value (Sarcoma 180 solid tumour) was > 0.45 and the ED50 (Sarcoma 180 solid tumour) was 84.4 mg/kg.

With `CNC(=O)[C@@H]1CCCN1C(=O)SCCNC1=C(C)C(=O)C2=C(C1=O)[C@@H](COC(N)=O)[C@@]1(OC)[C@H]3N[C@H]3CN21` [Compound 17, 7-N--[2-((S)--2-methylaminocarbonylpyrrolidino)-carbonylthioethyl]mitomycin C] the LD50 at 336 h [1] was 75 mg/kg, the “(CI)c” value (Sarcoma 180 solid tumour) was 1.32 and the ED50 (Sarcoma 180 solid tumour) was 21.7 mg/kg.

In the case of `CO[C@@]12[C@H](COC(N)=O)C3=C(C(=O)C(C)=C(NCCSC(=O)N4CCC[C@H]4C(=O)N(C)C)C3=O)N1C[C@@H]1N[C@@H]12` [Compound 18, 7-N--[2-((S)--2-dimethylaminocarbonylpyrrolidino)carbonylthioethyl]mitomycin C], the LD50 at 336 h [1] is reported as 97.5 mg/kg, the “(CI)c” value (Sarcoma 180 solid tumour) is reported as 3.02 and the ED50 (Sarcoma 180 solid tumour) is reported as 12.3 mg/kg.

In the case of `CO[C@@]12[C@H](COC(N)=O)C3=C(C(=O)C(C)=C(NCCSC(=O)N4CCC[C@H]4C(N)=O)C3=O)N1C[C@@H]1N[C@@H]12` [Compound 19, 7-N--[2-((S)--2-carbamoylpyrrolidino)carbonylthioethyl]mitomycin C], the LD50 at 336 h [1] is reported as 75 mg/kg, the “(CI)c” value (Sarcoma 180 solid tumour) is reported as 1.46 and the ED50 (Sarcoma 180 solid tumour) is reported as 19.6 mg/kg.

In the case of `CO[C@@]12[C@H](COC(N)=O)C3=C(C(=O)C(C)=C(NCCSC(=O)N4CCCC4)C3=O)N1C[C@@H]1N[C@@H]12` [Compound 21, 7-N--(2-pyrrolidinocarbonylthioethyl)mitomycin C], the LD50 at 336 h [1] is reported as 37.5 mg/kg, the “(CI)c” value (Sarcoma 180 solid tumour) is reported as 1.44 and the ED50 (Sarcoma 180 solid tumour) is reported as 8.4 mg/kg.

In the case of `CNC(=S)SCCNC1=C(C)C(=O)C2=C(C1=O)[C@@H](COC(N)=O)[C@@]1(OC)[C@H]3N[C@H]3CN21` [Compound 25, 7-N--(2-methylaminothiocarbonylthioethyl)mitomycin C], the LD50 at 336 h [1] is reported as 52.5 mg/kg, the “(CI)c” value (Sarcoma 180 solid tumour) is reported as 1.96 and the ED50 (Sarcoma 180 solid tumour) is reported as 10.5 mg/kg.

In the case of `CCCCNC(=O)SCCNC1=C(C)C(=O)C2=C(C1=O)[C@@H](COC(N)=O)[C@@]1(OC)[C@H]3N[C@H]3CN21` [Compound 28, 7-N--(2-n-butylaminocarbonylthioethyl)mitomycin C], the LD50 at 336 h [1] is reported as 43.8 mg/kg, the “(CI)c” value (Sarcoma 180 solid tumour) is reported as 1.73 and the ED50 (Sarcoma 180 solid tumour) is reported as 9.9 mg/kg.

For `CO[C@@]12[C@H](COC(N)=O)C3=C(C(=O)C(C)=C(NCCSC(=S)NC(c4ccccc4)c4ccccc4)C3=O)N1C[C@@H]1N[C@@H]12` [Compound 50], the “(ILSmax)c” value ([2]; (ILSmax of test compound)/(ILSmax of mitomycin C), ILS=(T-C)/C×100) was > 2.39, the “(TI)c” value ([2]; (TI of test compound)/(TI of mitomycin C), TI = OPD/dose which results in ILS30) was 1.10 and the ED (optimal dose, highest survival) ([2]; Mus musculus, P388, ip, dose resulting in the highest survival ratio, i.p. 24 h after implantation, 30 days, read-out: OPD) was 12.5 mg/kg. It also gave an ED (30% increase of life-span) ([2]; Mus musculus, P388, ip, 30% increase of life-span, i.p. 24 h after implantation, read-out: Dose needed to give ILS30) of 0.74 mg/kg.
